The results in this text go back to patent US20250228239A1, “MOLECULES HAVING PESTICIDAL UTILITY, AND INTERMEDIATES, COMPOSITIONS, AND PROCESSES, RELATED THERETO” (priority 2024, published 2025).

Where two headings read alike, the source gives them in different places.

Assay [1] concerns Cabbage Looper (Trichoplusia ni, TRIPNI). Put plainly: Bioassays on Cabbage Looper (CL), 128-well diet tray assay. As to conditions: Trichoplusia ni. Format: in vivo. The method, boiled down:
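Activity is mean percent mortality over eight wells of second-instar larvae exposed to diet treated at 50 μg/cm^2 for 5–7 days at 25° C.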

Assay [2] relates to Beet Armyworm (Spodoptera exigua, LAPHEG). Put plainly: Bioassays on Beet Armyworm (BAW), 128-well diet tray assay. As to conditions: Spodoptera exigua. Format: in vivo. In short, it runs like this:
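Larvae at second instar are exposed on dried, compound-treated diet (50 μg/cm^2, delivered in 90:10 acetone-water) in eight replicate wells. After five to seven days at 25° C., 14:10 light-dark, percent mortality in each well is scored and the eight wells averaged.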

Where [3] appears, read: Table ABC: Biological Results, species CL, read-out: CL.
Setting [4] is: Table ABC: Biological Results, species BAW, read-out: BAW.
Where [5] appears, read: Cabbage Looper, rating class, read-out: CL.
The mark [6] stands for this setting: Beet Armyworm, rating class, read-out: BAW.
The mark [7] stands for this setting: Cabbage Looper, Table ABC / ABC-DP rating, read-out: CL rating.
The mark [8] stands for this setting: Beet Armyworm, Table ABC / ABC-DP rating, read-out: BAW rating.

Take `O=C(Nc1c(F)ccc(NC(=O)C(F)F)c1F)c1cc(NC(=O)[C@H]2[C@H](c3ccc(Cl)c(Cl)c3)C2(Cl)Cl)cc(F)c1Cl` [F1345, 2-Chloro-5-((1R,3R)-2,2-dichloro-3-(3,4-dichlorophenyl)cyclopropane-1-carboxamido)-N-(3-(2,2-difluoroacetamido)-2,6-difluorophenyl)-3-fluorobenzamide]: the pest or weed control at 50 µg/cm2 in assay [1] (setting [3]) and in assay [2] (setting [4]) was 50 to 100% throughout.
As to `O=C(CCl)Nc1c(F)ccc(NC(=O)c2cc(NC(=O)[C@H]3[C@H](c4ccc(F)c(C(F)(F)F)c4)C3(Cl)Cl)ccc2Cl)c1F` [F1726, 2-Chloro-N-(3-(2-chloroacetamido)-2,4-difluorophenyl)-5-((1R,3R)-2,2-dichloro-3-(4-fluoro-3-(trifluoromethyl)phenyl)cyclopropane-1-carboxamido)benzamide], the pest or weed control at 50 µg/cm2 in assay [1] (setting [5]) and in assay [2] (setting [6]) was 50 to 100% each time.
Regarding `O=C(Nc1ccc(F)cc1F)c1c(Cl)ccc(NC(=O)[C@H]2[C@H](c3ccc(F)c(Cl)c3)C2(Cl)Cl)c1F` [F1464, 6-Chloro-3-((1R,3R)-2,2-dichloro-3-(3-chloro-4-fluorophenyl)cyclopropane-1-carboxamido)-N-(2,4-difluorophenyl)-2-fluorobenzamide], the pest or weed control at 50 µg/cm2 in assay [1] (setting [5]) and in assay [2] (setting [6]) was 50 to 100% throughout.
Take `Cc1cc(NC(=O)[C@H]2[C@H](c3cc(Cl)c(Cl)c(Cl)c3)C2(Cl)Cl)cc(C(=O)Nc2ccc(F)c(N)c2F)c1Cl` [F1449, N-(3-Amino-2,4-difluorophenyl)-2-chloro-5-((1R,3R)-2,2-dichloro-3-(3,4,5-trichlorophenyl)cyclopropane-1-carboxamido)-3-methylbenzamide]: the pest or weed control at 50 µg/cm2 in assay [1] (setting [5]) and in assay [2] (setting [6]) was 50 to 100% throughout.
`CC(C)(C)OC(=O)N(C(=O)OC(C)(C)C)c1c(F)ccc(NC(=O)c2cc(NC(=O)[C@H]3[C@H](c4cc(F)cc(C(F)(F)F)c4)C3(Cl)Cl)ccc2Cl)c1F` [F1681, tert-Butyl N-tert-butoxycarbonyl-N-[3-[[2-chloro-5-[[(1R,3R)-2,2-dichloro-3-[3-fluoro-5-(trifluoromethyl)phenyl]cyclopropanecarbonyl]amino]benzoyl]amino]-2,6-difluoro-phenyl]carbamate]: the pest or weed control at 50 µg/cm2 in assay [1] (setting [5]) and in assay [2] (setting [6]) was 50 to 100% throughout.
Take `CN(NC(=O)c1cc(NC(=O)[C@H]2[C@H](c3cc(Cl)cc(Cl)c3)C2(Cl)Cl)ccc1Cl)C(=O)C1CC1(F)F` (relative stereo) [F2534, trans-2,2-Dichloro-N-(4-chloro-3-(2-(2,2-difluorocyclopropane-1-carbonyl)-2-methylhydrazine-1-carbonyl)phenyl)-3-(3,5-dichlorophenyl)cyclopropane-1-carboxamide]: the pest or weed control at 50 µg/cm2 in assay [1] (setting [7]) and in assay [2] (setting [8]) was 50 to 100% each time.
Turning to `CC(=O)Nc1cc(NC(=O)c2cc(NC(=O)[C@H]3[C@H](c4cc(Cl)c(Cl)c(Cl)c4)C3(Cl)Cl)cc(F)c2F)c(F)cc1F` [F1581, N-(5-Acetamido-2,4-difluorophenyl)-5-((1R,3R)-2,2-dichloro-3-(3,4,5-trichlorophenyl)cyclopropane-1-carboxamido)-2,3-difluorobenzamide], the pest or weed control at 50 µg/cm2 in assay [1] (setting [5]) and in assay [2] (setting [6]) was 50 to 100% each time.
In the case of `O=C(Nc1ccc(F)c(NC(=O)C(F)(F)C(F)(F)C(F)(F)F)c1F)c1cc(NC(=O)[C@H]2[C@H](c3cc(Cl)c(Cl)c(Cl)c3)C2(Cl)Cl)ccc1Cl` [F1652, 2-Chloro-5-((1R,3R)-2,2-dichloro-3-(3,4,5-trichlorophenyl)cyclopropane-1-carboxamido)-N-(2,4-difluoro-3-(2,2,3,3,4,4,4-heptafluorobutanamido)phenyl)benzamide], the pest or weed control at 50 µg/cm2 in assay [1] (setting [5]) and in assay [2] (setting [6]) was 50 to 100% each time.
With `O=C(Nc1cc(NC(=O)C(F)(F)F)c(F)cc1F)c1cc(NC(=O)[C@H]2[C@H](c3cc(Cl)c(Cl)c(Cl)c3)C2(Cl)Cl)cc(F)c1F` [F1579, 5-((1R,3R)-2,2-Dichloro-3-(3,4,5-trichlorophenyl)cyclopropane-1-carboxamido)-N-(2,4-difluoro-5-(2,2,2-trifluoroacetamido)phenyl)-2,3-difluorobenzamide], the pest or weed control at 50 µg/cm2 in assay [1] (setting [5]) and in assay [2] (setting [6]) was 50 to 100% in each case.
Consider `O=C(Nc1ccc(F)c(O)c1F)c1cc(NC(=O)[C@H]2[C@H](c3cc(Cl)cc(Cl)c3)C2(Cl)Cl)ccc1Cl` (relative stereo) [F1203, trans-2-chloro-5-(2,2-dichloro-3-(3,5-dichlorophenyl)cyclopropane-1-carboxamido)-N-(2,4-difluoro-3-hydroxyphenyl)benzamide], for which the pest or weed control at 50 µg/cm2 lay in the range of 50 to 100% in assay [1] (setting [3]) and 0 to 50% in assay [2] (setting [4]).
As to `CN(C(=O)C(F)F)c1c(F)ccc(NC(=O)c2cc(NC(=O)[C@H]3[C@H](c4cc(Cl)cc(Cl)c4)C3(Cl)Cl)ccc2Cl)c1F` [F1462, 2-Chloro-5-((1R,3R)-2,2-dichloro-3-(3,5-dichlorophenyl)cyclopropane-1-carboxamido)-N-(3-(2,2-difluoro-N-methylacetamido)-2,4-difluorophenyl)benzamide], the pest or weed control at 50 µg/cm2 in assay [1] (setting [5]) and in assay [2] (setting [6]) was 50 to 100% each time.
In the case of `CC(=O)Nc1c(F)cc(F)cc1NC(=O)c1cc(NC(=O)[C@H]2[C@H](c3cc(Cl)cc(Cl)c3)C2(Cl)Cl)ccc1Cl` (relative stereo) [F1632, trans-N-(2-Acetamido-3,5-difluorophenyl)-2-chloro-5-(2,2-dichloro-3-(3,5-dichlorophenyl)cyclopropane-1-carboxamido)benzamide], the pest or weed control at 50 µg/cm2 in assay [1] (setting [5]) and in assay [2] (setting [6]) was 50 to 100% throughout.
`CC(CC(F)(F)F)C(=O)Nc1c(F)ccc(NC(=O)c2cc(NC(=O)[C@H]3[C@H](c4ccc(F)c(C(F)(F)F)c4)C3(Cl)Cl)ccc2Cl)c1F` (stereo partly drawn) [F1835, 2-Chloro-5-((1R,3R)-2,2-dichloro-3-(4-fluoro-3-(trifluoromethyl)phenyl)cyclopropane-1-carboxamido)-N-(2,4-difluoro-3-(4,4,4-trifluoro-2-methylbutanamido)phenyl)benzamide]: the pest or weed control at 50 µg/cm2 in assay [1] (setting [7]) and in assay [2] (setting [8]) was 50 to 100% in each case.
On to `O=C(Nc1ccc(F)c(NC(=O)C2CCCO2)c1F)c1cc(NC(=O)[C@H]2[C@H](c3ccc(F)c(Br)c3)C2(Cl)Cl)ccc1Cl` (stereo partly drawn) [F1714, N-(3-(5-((1R,3R)-3-(3-Bromo-4-fluorophenyl)-2,2-dichlorocyclopropane-1-carboxamido)-2-chlorobenzamido)-2,6-difluorophenyl)tetrahydrofuran-2-carboxamide], for which the pest or weed control at 50 µg/cm2 in assay [1] (setting [5]) and in assay [2] (setting [6]) was 50 to 100% throughout.
For the molecule `O=C(Nc1ccc(F)c(NC(=O)C(F)F)c1F)c1cc(NC(=O)[C@H]2[C@H](c3cc(Cl)c(F)c(Cl)c3)C2(Cl)Cl)ccc1Cl` (relative stereo) [F1331, trans-2-Chloro-5-(2,2-dichloro-3-(3,5-dichloro-4-fluorophenyl)cyclopropane-1-carboxamido)-N-(3-(2,2-difluoroacetamido)-2,4-difluorophenyl)benzamide], the pest or weed control at 50 µg/cm2 in assay [1] (setting [3]) and in assay [2] (setting [4]) was 50 to 100% throughout.
